The values below come from patent US10975118B2, “Crystalline dipeptides useful in the synthesis of elamipretide” (Stealth BioTherapeutics Corp., priority 2018, dated 2021).

Values after ≈ are worked out from the molar mass of the structure shown. Where a SMILES comes first, the peptide text is derived from it. [ ]: non-standard residue; d: D form. The star is where a group is joined. Dmt = Cc1cc(O)cc(C)c1C[C@H](N)C(=O)O; Boc = CC(C)(C)OC(=O)*

One may read the solubility as the concentration that dissolves in the medium under given conditions.

Common to all, as to format: physicochemical
Data set [1] in a line: Stability and handling of the isolated zwitterionic form (statement). The conditions noted are these: solid isolated from CH3OH/H2O with Na2CO3. As to the method: Preparation of the Zwitterionic Form of Compound II
[drawing 5] • 1. The crude HCl salt is suspended in CH3OH/H2O (1/1, v/v) • 2. The suspension is heated to 45-50° C. • 3. After the clear solution is formed, an aqueous solution of Na2CO3 (1.2 eq.) is added. During the addition, the solid begins to precipitate. • 4. The suspension is stirred for 1 h at 45° C., and then cooled to 15° C. and stirred for an additional hour. • 5. The solid is isolated by filtration and dried to provide Compound II with high purity (99.4 area %) by HPLC.
Formation of zwitterionic compound led to high purity material that was stable, easily handled, and highly crystalline.

A short description of data set [2]: Preliminary single-solvent solubility, determined by HPLC (response curve). From the text:
Preliminary Single-Solvent Solubility of Compound I: […]

The nature of data set [3]: In process precipitation results (MeOH/water). The conditions noted are these: aqueous with cosolvent or surfactant or cyclodextrin. The text has this: In Process Precipitation Results (MeOH/Water) of Compound I: […]
Data set [4] can be described thus: Preliminary precipitation studies (MeOH/water). The conditions noted are these: aqueous with cosolvent or surfactant or cyclodextrin, Normal addition, 10 mL/g, 25° C. From the text: Preliminary Precipitation Studies (MeOH/Water) of Compound I: […]

On to `Cc1cc(O)cc(C)c1C[C@H](NC(=O)[C@@H](CCCNC(=N)N)NC(=O)OC(C)(C)C)C(=O)O` [Compound II, Boc-D-Arg-DMT] (Boc-[dR]-[Dmt]-OH), for which the Stability of material result in data set [1] was “stable”.
With `CC(C)(C)OC(=O)NCCCC[C@H](N)C(=O)N[C@@H](Cc1ccccc1)C(N)=O` [Compound I, L-Lys(Boc)-Phe-NH2], the solubility in data set [2] (organic solvent or mixture, solvent EtOH (SDAG-7)) turned out to be 155000 µg/mL (≈ 394 mM); in data set [2] (organic solvent or mixture, solvent MeOAc) it was 18200 µg/mL (≈ 46.4 mM); in data set [2] (organic solvent or mixture, solvent THF) it was 84500 µg/mL (≈ 215 mM); in data set [2] (organic solvent or mixture, solvent iPrOAc), 5100 µg/mL (≈ 13 mM); in data set [2] (solvent Water), 4100 µg/mL (≈ 10.4 mM); in data set [3] (Experiment 2447-41, MeOH/Water 1:9, 13 mL/g) it was 2500 µg/mL (≈ 6.37 mM). The solubility amounted to 4200 µg/mL (≈ 10.7 mM) in data set [3] (Experiment 2447-47, MeOH/Water 1:5, 10 mL/g); 7000 µg/mL (≈ 17.8 mM) in data set [4] (Experiment 1, MeOH/Water 1:3); 5000 µg/mL (≈ 12.7 mM) in data set [4] (Experiment 2, MeOH/Water 1:5); 3600 µg/mL (≈ 9.17 mM) in data set [4] (Experiment 3, MeOH/Water 1:9); 2700 µg/mL (≈ 6.88 mM) in data set [4] (Experiment 4, MeOH/Water 1:19).
